Measurements: patent US4713486A, “Novel compounds” (Beecham Group p.l.c., priority 1982, dated 1987)

Tests used:
cyclo-oxygenase = target: T1, cyclo-oxygenase (Bos taurus, UniProt O62664); test: Cyclo-oxygenase Screen: inhibition of cyclo-oxygenase in bovine seminal vesicle microsomes; format: biochemical; settings: 50 μM compound, pH 8.0, 37° C., 5 min preincubation, 2 min reaction, 5-15 μM arachidonic acid, read-out: Cyclooxygenase Inhibition at 50 μM
T1 construct: lyophilised bovine seminal vesicle microsomes; from tissue; host or cells: bovine seminal vesicle microsomes
T1 sequence (O62664 25-600): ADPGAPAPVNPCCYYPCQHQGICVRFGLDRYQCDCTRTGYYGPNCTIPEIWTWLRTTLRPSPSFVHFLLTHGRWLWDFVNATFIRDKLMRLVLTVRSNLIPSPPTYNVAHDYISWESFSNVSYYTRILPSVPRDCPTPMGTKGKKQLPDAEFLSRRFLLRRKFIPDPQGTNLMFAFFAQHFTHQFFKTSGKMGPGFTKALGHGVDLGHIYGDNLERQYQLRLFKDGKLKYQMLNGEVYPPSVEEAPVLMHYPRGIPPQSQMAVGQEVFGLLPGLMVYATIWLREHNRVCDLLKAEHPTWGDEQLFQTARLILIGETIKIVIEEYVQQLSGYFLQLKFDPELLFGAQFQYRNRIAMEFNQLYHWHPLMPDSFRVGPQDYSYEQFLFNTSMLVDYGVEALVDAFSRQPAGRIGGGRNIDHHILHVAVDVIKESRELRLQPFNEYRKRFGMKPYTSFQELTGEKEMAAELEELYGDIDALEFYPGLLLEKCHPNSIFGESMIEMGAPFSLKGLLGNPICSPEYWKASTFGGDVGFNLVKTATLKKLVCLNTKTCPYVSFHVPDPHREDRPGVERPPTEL
Description: (2) Cyclo-oxygenase Screen
The inhibition of cyclo-oxygenase was measured in a buffered incubation (0.2M Tris-HCI, pH 8.0 containing 1 mM ethylene diaminetetraacetic acid) comprising 0.96 mg lyophilised bovine seminal vesicle microsomes, 5-15 μM arachidonic acid containing 0.2 μCi [1--^14 C] arachidonic acid, 2 mM glutathione, […], 1 μM haemoglobin and compound (0-0.05 mM in 5 μl dimethylsulphoxide or absolute ethanol) in a total volume of 2.0 ml. Compounds were preincubated with the incubation constitutents for 5 min at 37° C. before the reaction was started by the addition of the arachidonic acid. The reaction was continued at 37° C. for 2 min, then stopped by placing the incubations on ice and the addition of 1.2 ml 0.2M citric acid. Unmetabolised substrate and prostaglandin products were extracted in ethyl acetate (2×4 ml), the combined extracts washed with 0.8 ml water, and separated by thin-layer chromatography (Kieselgel GF254 plates in ethyl acetate:acetone:glacial acetate acid, 90:10:1, v/v). Recovery was 65-80%. The regions on the thin-layer chromatography plate that chromatographed with authentic arachidonic acid or prostaglandins E2 and F2 α (Rf 's 0.70. 0.28 and 0.16 respectively) were scraped and the radioactivity in each determined by liquid scintillation counting with a correction for quenching being made by the external standard-channels ratio method. Inhibition of cyclo-oxygenase activity was calculated from the decrease in prostaglandin formation. Each compound concentration was tested in triplicate and the 50% inhibitory concentration, if determined, was calculated by linear regression from the inhibitory data at, at least three different compound concentrations.

soybean lipoxygenase = target: T2, soybean lipoxygenase (Glycine max, UniProt P08170); test: Lipoxygenase Screen: inhibition of soybean lipoxygenase activity; format: biochemical; settings: 25° C., pH 9.0, 1000 I.U. soybean lipoxygenase, 0.017 mM arachidonic acid, 5 min preincubation; range in parentheses not explained; Example 9 as N-methylglucamine salt
T2 sequence (P08170 1-839): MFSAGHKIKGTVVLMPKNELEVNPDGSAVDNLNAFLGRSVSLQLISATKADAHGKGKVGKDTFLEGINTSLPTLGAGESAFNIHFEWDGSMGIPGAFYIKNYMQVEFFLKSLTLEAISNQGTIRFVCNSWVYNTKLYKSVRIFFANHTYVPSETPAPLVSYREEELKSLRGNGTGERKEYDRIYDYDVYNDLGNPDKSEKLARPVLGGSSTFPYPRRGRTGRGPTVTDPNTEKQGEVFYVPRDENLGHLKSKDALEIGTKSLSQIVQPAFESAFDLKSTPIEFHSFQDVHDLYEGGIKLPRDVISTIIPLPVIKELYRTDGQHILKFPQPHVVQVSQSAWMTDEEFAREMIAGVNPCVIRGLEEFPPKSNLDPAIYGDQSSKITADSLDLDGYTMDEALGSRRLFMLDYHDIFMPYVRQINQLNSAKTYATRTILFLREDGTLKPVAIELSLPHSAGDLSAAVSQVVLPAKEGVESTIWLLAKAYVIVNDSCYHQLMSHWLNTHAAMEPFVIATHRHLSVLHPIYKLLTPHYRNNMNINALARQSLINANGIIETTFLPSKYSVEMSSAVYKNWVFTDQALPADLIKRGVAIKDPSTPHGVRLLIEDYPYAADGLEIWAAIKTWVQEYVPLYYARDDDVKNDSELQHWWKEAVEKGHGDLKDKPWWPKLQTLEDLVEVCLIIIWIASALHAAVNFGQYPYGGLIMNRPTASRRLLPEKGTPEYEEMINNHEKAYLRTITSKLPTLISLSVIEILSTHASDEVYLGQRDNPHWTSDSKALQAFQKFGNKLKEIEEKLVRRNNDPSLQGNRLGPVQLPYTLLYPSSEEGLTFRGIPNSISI
Description: Inhibition of lipoxygenase activity was measured at 25° C. in a buffered incubation system (0.2M sodium borate, pH 9.0) comprising 1000 I.U. soybean lipoxygenase, 0.017 mM arachidonic acid, and compound (0-0.050 mM, dissolved in absolute ethanol:0.9% w/v saline, 30:70 v/v) in a total volume of 2.5 ml. Enzyme and compound were preincubated together at 25° C. for 5 minutes prior to initiation of the lipoxygenase reaction by the addition of the arachidonic acid. Lipoxygenase activity was measured as the rate of the initial increase in absorbance at 235 nm due to the formation of peroxidised forms of arachidonic acid. Inhibitory activity was measured at at least three compound concentrations and the 50% inhibitory concentration determined from the plot of % inhibition versus compound concentration.

inhibition at 50 µM (cyclo-oxygenase) [%] | IC50 (soybean lipoxygenase) [µM] | SMILES
64 |  | CCCCCCCCCCC/C=C/c1ccccc1OCCCC(=O)O [Example 85]
92.4 |  | CCCCCCCCCCC/C=C\c1ccccc1OCC(=O)O [Example 60, (Z) 2-[2-(1-tridecenyl)-phenoxy]ethanoic acid]
67 | 4.2 | CCCCCCCCCCC/C=C\c1ccccc1OCCCC(=O)O [Example 62, (Z) 4-[2-(1-tridecenyl)phenoxy]-butanoic acid]
 | 142 | CCCCCCCCCCCC#Cc1ccc(/C=C/C(=O)OC)cc1 [Example 4, Methyl 4-(1-tridecynyl)cinnamate]
91 |  | CCCCCCCCCCC/C=C\c1cccc(/C=C/C(=O)O)c1 [Example 31]
26 | 23.2 | CCCCCCCCCCC/C=C\c1ccccc1/C=C/C(=O)O [Example 30]
52 | 52.3 | CCCCCCCCC/C=C/c1ccc(/C=C/C(=O)O)cc1 [Example 26]
51 | 124 | CCCCCCCCCCC/C=C\c1ccc(OCC(=O)O)cc1 [Example 89]
78.9 |  | CCCCCCCCCCC/C=C\c1ccccc1OCCC(=O)O [Example 61, (Z) 3-[2-(1-tridecenyl)phenoxy]-propanoic acid]
86.5 | 85.7 | CCCCCCCCCCCC#Cc1ccccc1/C=C/C(=O)O [Example 12]
80 | 20 | CCCCCCCCCCCC#Cc1ccccc1CCC(=O)O [Example 42, 3[2-(1-Tridecynyl)phenyl]propanoic acid]
 | 272 | CCCCCCCCCCCC#Cc1ccc(/C=C/C(=O)O)cc1 [Example 9, 4-(1-Tridecynyl)cinnamic acid]
40 |  | CCCCCCCCCCC/C=C/c1ccc(CCC(=O)O)cc1 [Example 41, 3-{4-[(E)-1-Tridecenyl]phenyl}propanoic acid]
67 |  | CCCCCCCCCCC/C=C/c1ccccc1OCCCCC(=O)O [Example 87]
25.6 | 35.9 | CCCCCCCCCCC/C=C\c1ccc(/C=C/C(=O)O)cc1 [Example 25]
67 |  | CCCCCCCCCCC/C=C\c1ccc(CCC(=O)O)cc1 [Example 40, 3-{4-[(Z)-1-Tridecenyl]phenyl}propanoic acid]
72 |  | CCCCCCCC/C=C\c1ccccc1OCCCC(=O)O [Example 82]
 | 42.8 | CCCCCCCCC/C=C\c1ccc(OCCCC(=O)O)cc1 [Example 92]
 | 75.3 | CCCCCCCCCC/C=C\c1ccc(OCCC(=O)O)cc1 [Example 90]
79.8 |  | CCCCCCCCCCCC#Cc1cccc(/C=C/C(=O)O)c1 [Example 13]
 | 55.4 | CCCCCCCCCCC/C=C\c1ccccc1OCCCC(=O)OCC [Example 55, (Z) Ethyl 4-[2-(1-tridecenyl)phenoxy)-butanoate]
62.7 | 18.4 | CCCCCCCCCCC/C=C\c1ccccc1CCC(=O)O [Example 43, 3-{2-[(Z)-1-Tridecenyl]phenyl}propanoic acid]
52 | 30 | CCCCCCCCCCC/C=C/c1ccc(/C=C/C(=O)O)cc1 [Example 24, 4-[(E)-1-Tridecenyl]cinnamic acid]
70.5 | 46.6 | CCCCCCCCC/C=C\c1ccc(/C=C/C(=O)O)cc1 [Example 27]
 | 230 | CCCCCCCCCCC/C=C\c1ccc(/C=C/C(=O)OC)cc1 [Example 15, Methyl 4-[(Z)-1-tridecenyl]cinnamate]
66.5 |  | CCCCCCCCCCCCC/C=C\c1ccc(/C=C/C(=O)O)cc1 [Example 29]
